Measured values taken from patent US6900219B2, “ABCA-1 elevating compounds” (CV Therapeutics, Inc., priority 2002, dated 2005).

Test system: ABCA-1 gene
Assay: compounds tested and found to elevate cellular expression of the ABCA-1 gene (Examples 1-6; test not named)
Format: cell-based
Experimental: Activity testing is conducted as described in those patents and patent applications referenced above, and in the Examples below, and by methods apparent to one skilled in the art.

Compound	cellular expression of the ABCA-1 gene
O=C(Nc1ccc2c(c1)CCC2)c1ccco1 [2-furyl-N-indan-5-ylcarboxamide]	elevate cellular expression of the ABCA-1 gene
O=C(Nc1nc2ccccc2s1)C1CCC1 [N-benzothiazol-2-ylcyclobutylcarboxamide]	elevate cellular expression of the ABCA-1 gene
(3-chlorobenzo[b]thiophen-2-yl)-N-(ethynylcyclohexyl)carboxamide	elevate cellular expression of the ABCA-1 gene
CC(C)(C)c1ccc(C(=O)Nc2nc(-c3ccc4ccccc4c3)cs2)cc1 [[4-(tert-butyl)phenyl]-N-(4-(2-naphthyl)(1,3-thiazol-2-yl))carboxamide]	elevate cellular expression of the ABCA-1 gene
CSC(N)=N/N=C/c1ccc(Cl)cc1 [(1 Z,3E)-2,3-diaza-4-(4-chlorophenyl)-1-methylthiobuta-1,3-dienylamine]	elevate cellular expression of the ABCA-1 gene
N#Cc1c(C(F)(F)F)cc(-c2cccs2)nc1SCC(=O)Nc1nc2ccccc2s1 [N-benzothiazol-2-yl-2-[3-cyano-6-(2-thienyl)-4-(trifluoromethyl)(2-pyridylthio)]acetamide]	elevate cellular expression of the ABCA-1 gene
O=C(Nc1ncc(-c2ccccc2Cl)s1)C1CC1 [N-[5-(2-chlorophenyl)(1,3-thiazol-2-yl)]cyclopropylcarboxamide]	elevate cellular expression of the ABCA-1 gene
CC(C)CN(C(=O)Nc1cccc2ccccc12)C(C)c1nc2ccccc2c(=O)n1-c1ccc2ccccc2c1 (centres unmarked) [N-(2-methylpropyl)(naphthylamino)-N-[(3-(2-naphthyl)-4-oxo(3-hydroquinazolin-2-yl))ethyl]carboxamide]	elevate cellular expression of the ABCA-1 gene
O=C(Nc1ncc(-c2ccccc2)s1)c1ccc(C(F)(F)F)c(F)c1 [[3-fluoro-4-(trifluoromethyl)phenyl]-N-(5-phenyl(1,3-thiazol-2-yl))carboxamide]	elevate cellular expression of the ABCA-1 gene
CCNC(=O)N(Cc1ccco1)C(C)c1nc2ccccc2c(=O)n1-c1ccc(Br)cc1 (centres unmarked) [N-{[3-(4-bromophenyl)-4-oxo(3-hydroquinazolin-2-yl)]ethyl}(ethylamino)-N-(2-furylmethyl)carboxamide]	elevate cellular expression of the ABCA-1 gene
C1=C(c2ccccc2)Nc2nc3ccccc3n2C1c1ccccc1 (centres unmarked) [2,4-diphenyl-1,4,5-trihydropyrimidino[1,2-a]benzimidazole]	elevate cellular expression of the ABCA-1 gene
CCc1c(C(=O)NC(C)C(C)C)cnn1-c1nc(-c2ccc(C)cc2)cs1 (centres unmarked) [N-(1,2-dimethylpropyl){5-ethyl-1-[4-(4-methylphenyl)(1,3-thiazol-2-yl)]pyrazol-4-yl}carboxamide]	elevate cellular expression of the ABCA-1 gene
O=C1CSC(NC(=O)c2ccccc2C(F)(F)F)=N1 [(2-trifluoromethylphenyl)-N-(4-oxo(1,3-thiazolin-2-yl))carboxamide]	elevate cellular expression of the ABCA-1 gene
CCCN(C(=O)Nc1cccc(F)c1)C(C)c1nc2ccccc2c(=O)n1-c1ccc2ccccc2c1 (centres unmarked) [[(3-fluorophenyl)amino]-N-[(3-(2-naphthyl)-4-oxo(3-hydroquinazolin-2-yl))ethyl]-N-propylcarboxamide]	elevate cellular expression of the ABCA-1 gene
O=C(Nc1cccc(Cl)c1)Nc1ccccc1C(=O)O [2-{[N-(3-chlorophenyl)carbamoyl]amino}benzoic acid]	elevate cellular expression of the ABCA-1 gene
CCOC(=O)CCN(C(=O)CCc1ccccc1)c1ccc(CC)cc1 [ethyl 3-[(4-ethylphenyl)-N-(2-phenylethyl)carbonylamino]propanoate]	elevate cellular expression of the ABCA-1 gene
O=[N+]([O-])c1ccc(COc2ccc(C3SCCS3)cc2)cc1 [4-(1,3-dithiolan-2-yl)-1-[(4-nitrophenyl)methoxy]benzene]	elevate cellular expression of the ABCA-1 gene
CCOC(=O)Cc1csc(NC(=O)Nc2ccccc2F)n1 [ethyl 2-(2-{[(2-fluorophenyl)amino]carbonylamino}-1,3-thiazol-4-yl)acetate]	elevate cellular expression of the ABCA-1 gene
O=C(Nc1nc2ccccc2c(=O)o1)c1ccc(Cl)cc1 [(4-chlorophenyl)-N-(4-oxobenzo[d]1,3-oxazin-2-yl)carboxamide]	elevate cellular expression of the ABCA-1 gene
Cc1c(Nc2nc(-c3ccc4ccccc4c3)cs2)cccc1C(=O)O [2-methyl-3-[(4-(2-naphthyl)(1,3-thiazol-2-yl))amino]benzoic acid]	elevate cellular expression of the ABCA-1 gene
O=C(Nc1nc2c(Cl)cccc2s1)c1cccc(F)c1 [N-(4-chlorobenzothiazol-2-yl)(3-fluorophenyl)carboxamide]	elevate cellular expression of the ABCA-1 gene
O=C(Nc1ccccc1)Nc1ccc2c(c1)CCC2 [N-indan-5-yl(phenylamino)carboxamide]	elevate cellular expression of the ABCA-1 gene
CCN(CC)CCCC(C)NC(=O)c1cnn(-c2nc(-c3cccc(OC)c3)cs2)c1C (centres unmarked) [N-[4-(diethylamino)-1-methylbutyl]{1-[4-(3-methoxyphenyl)(1,3-thiazol-2-yl)]-5-methylpyrazol-4-yl}carboxamide]	elevate cellular expression of the ABCA-1 gene
CCc1ccc(C(=O)N(C/C=C/c2ccccc2)c2ccc(Br)cc2)cc1 [N-((2E)-3-phenylprop-2-enyl)-N-(4-bromophenyl)(4-ethylphenyl)carboxamide]	elevate cellular expression of the ABCA-1 gene
CC(C)(C)c1ccc(C(=O)Nc2nc(-c3ccc(Cl)cc3)cs2)cc1 [[4-(tert-butyl)phenyl]-N-[4-(4-chlorophenyl)(1,3-thiazol-2-yl)]carboxamide]	elevate cellular expression of the ABCA-1 gene
O=C(Nc1nc(-c2ccc(Cl)cc2)cs1)c1ccc(OC(F)(F)F)cc1 [N-[4-(4-chlorophenyl)(1,3-thiazol-2-yl)][4-(trifluoromethoxy)phenyl]carboxamide]	elevate cellular expression of the ABCA-1 gene
CCOC(=O)C1=C(NCCc2ccccc2)CCN(C(=O)c2ccccc2C)C1 [ethyl 1-[(2-methylphenyl)carbonyl]-4-[(2-phenylethyl)amino]-1,2,5,6-tetrahydropyridine-3-carboxylate]	elevate cellular expression of the ABCA-1 gene
O=C(/C=C/c1ccccc1)NCCN(C(=O)Nc1cccc(C(F)(F)F)c1)c1ccccc1 [(2E)-3-phenyl-N-[2-(phenyl {N-[3-(trifluoromethyl)phenyl]carbamoyl}amino)ethyl]prop-2-enamide]	elevate cellular expression of the ABCA-1 gene
N-(4-naphthyl(1,3-thiazol-2-yl))(4-phenylphenyl)carboxamide	elevate cellular expression of the ABCA-1 gene
